pIC50: −log10 of the molar value.
Tested on: 188146-221-R-J1-PDC complex spheroid viability
Experiment: Anticancer human tumor 188146-221-R-J1-PDC patient-derived colon adenocarcinoma cell line growth inhibition [POLQ]
Conditions: for pIC50: curve of first compound; for viability, T/C: stronger effect = lower value; active means viability on the fitted dose curve at most 10% of control; inactive means the rest
Outline: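 Patient-derived tumour cells were co-cultured with HUVEC and mesenchymal stem cells as multicellular spheroids at 37 °C. They were treated with POLQ inhibitors (novobiocin, ART-558, RP6685) alone or combined with other agents. Top concentrations were at or near clinical Cmax (otherwise 10 microM; SN-38 at 1 microM), decreasing in half-log steps.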

[1] = second compound 0.0316 µM, first compound 0.0316 µM
[2] = second compound 0.0316 µM, first compound 0.1 µM
[3] = second compound 0.0316 µM, first compound 0.316 µM
[4] = second compound 0.0316 µM, first compound 1 µM
[5] = second compound 0.0316 µM, first compound 3.16 µM
[6] = second compound 0.0316 µM, first compound 10 µM
[7] = second compound 0.1 µM, first compound 0.0316 µM
[8] = second compound 0.1 µM, first compound 0.1 µM
[9] = second compound 0.1 µM, first compound 0.316 µM
[10] = second compound 0.1 µM, first compound 1 µM
[11] = second compound 0.1 µM, first compound 3.16 µM
[12] = second compound 0.1 µM, first compound 10 µM
[13] = second compound 0.316 µM, first compound 0.0316 µM
[14] = second compound 0.316 µM, first compound 0.1 µM
[15] = second compound 0.316 µM, first compound 0.316 µM
[16] = second compound 0.316 µM, first compound 1 µM
[17] = second compound 0.316 µM, first compound 3.16 µM
[18] = second compound 0.316 µM, first compound 10 µM
[19] = second compound 1 µM, first compound 0.0316 µM
[20] = second compound 1 µM, first compound 0.1 µM
[21] = second compound 1 µM, first compound 0.316 µM
[22] = second compound 1 µM, first compound 1 µM
[23] = second compound 1 µM, first compound 3.16 µM
[24] = second compound 1 µM, first compound 10 µM
[25] = second compound 3.16 µM, first compound 0.0316 µM
[26] = second compound 3.16 µM, first compound 0.1 µM
[27] = second compound 3.16 µM, first compound 0.316 µM
[28] = second compound 3.16 µM, first compound 1 µM
[29] = second compound 3.16 µM, first compound 3.16 µM
[30] = second compound 3.16 µM, first compound 10 µM
[31] = second compound 10 µM, first compound 0.0316 µM
[32] = second compound 10 µM, first compound 0.1 µM
[33] = second compound 10 µM, first compound 0.316 µM
[34] = second compound 10 µM, first compound 1 µM
[35] = second compound 10 µM, first compound 3.16 µM
[36] = second compound 10 µM, first compound 10 µM
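Further: spheroids exposed to compounds for seven days.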
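Wherever viability, T/C is given: 100% = DMSO vehicle control viability.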

C=CC(=O)N1CCN(c2nc(=O)n(-c3c(C)ccnc3C(C)C)c3nc(-c4c(O)cccc4F)c(F)cc23)C(C)C1 (stereo not drawn) + Nc1ccc(C#CCN(C(=O)Cc2ncc(C(F)(F)F)cc2C(F)(F)F)c2ccc(F)cc2)nn1
< 5.00: pIC50 (second compound 0.0316 µM) | pIC50 (second compound 0.1 µM) | pIC50 (second compound 0.316 µM) | pIC50 (second compound 1 µM) | pIC50 (second compound 3.16 µM) | pIC50 (second compound 10 µM)
inactive: viability, T/C [1] 104% | viability, T/C [2] 107% | viability, T/C [3] 103% | viability, T/C [4] 96.5% | viability, T/C [5] 104% | viability, T/C [6] 84.9% | viability, T/C [7] 95.7% | viability, T/C [8] 108% | viability, T/C [9] 101% | viability, T/C [10] 102% | viability, T/C [11] 120% | viability, T/C [12] 85.6% | viability, T/C [13] 104% | viability, T/C [14] 99.2% | viability, T/C [15] 109% | viability, T/C [16] 82.2% | viability, T/C [17] 104% | viability, T/C [18] 78% | viability, T/C [19] 108% | viability, T/C [20] 91.6% | viability, T/C [21] 92.6% | viability, T/C [22] 113% | viability, T/C [23] 97.4% | viability, T/C [24] 103% | viability, T/C [25] 96.8% | viability, T/C [26] 108% | viability, T/C [27] 92.4% | viability, T/C [28] 104% | viability, T/C [29] 97.5% | viability, T/C [30] 101% | viability, T/C [31] 101% | viability, T/C [32] 104% | viability, T/C [33] 107% | viability, T/C [34] 107% | viability, T/C [35] 98.1% | viability, T/C [36] 96.4%

COc1cc(C2c3cc4c(cc3C(OC3OC5COC(C)OC5C(O)C3O)C3COC(=O)C23)OCO4)cc(OC)c1O (stereo not drawn) + COC1C(OC(N)=O)C(O)C(Oc2ccc3c(O)c(NC(=O)c4ccc(O)c(CC=C(C)C)c4)c(=O)oc3c2C)OC1(C)C
5.87: pIC50 (second compound 10 µM)
6.01: pIC50 (second compound 1 µM)
6.02: pIC50 (second compound 3.16 µM)
inactive: viability, T/C [1] 116% | viability, T/C [2] 103% | viability, T/C [3] 78.1% | viability, T/C [4] 45.9% | viability, T/C [5] 31.3% | viability, T/C [6] 21.4% | viability, T/C [7] 124% | viability, T/C [8] 108% | viability, T/C [9] 79.5% | viability, T/C [10] 50% | viability, T/C [11] 24.8% | viability, T/C [12] 29% | viability, T/C [13] 103% | viability, T/C [14] 111% | viability, T/C [15] 80.4% | viability, T/C [16] 46.5% | viability, T/C [17] 24.7% | viability, T/C [18] 23.4% | viability, T/C [19] 111% | viability, T/C [20] 93.8% | viability, T/C [21] 77.3% | viability, T/C [22] 52.9% | viability, T/C [23] 25.3% | viability, T/C [24] 31.6% | viability, T/C [25] 105% | viability, T/C [26] 103% | viability, T/C [27] 81.9% | viability, T/C [28] 49.7% | viability, T/C [29] 30% | viability, T/C [30] 29.2% | viability, T/C [31] 119% | viability, T/C [32] 103% | viability, T/C [33] 97.3% | viability, T/C [34] 54.1% | viability, T/C [35] 34.7% | viability, T/C [36] 27.4%
6.07: pIC50 (second compound 0.316 µM)
6.04: pIC50 (second compound 0.0316 µM) | pIC50 (second compound 0.1 µM)

COc1ccc([C@@H](O)c2cc(-c3ncnc4cc(N5CCOCC5)ccc34)c(F)cc2Cl)nn1 + Cc1cccc(N(C)C(=O)C2C(O)CCN2c2nc(C)cc(C(F)(F)F)c2C#N)c1
5.33: pIC50 (second compound 0.316 µM) | pIC50 (second compound 1 µM)
5.25: pIC50 (second compound 0.1 µM)
inactive: viability, T/C [1] 97.6% | viability, T/C [2] 98% | viability, T/C [3] 87.9% | viability, T/C [4] 89.2% | viability, T/C [5] 72% | viability, T/C [6] 30.3% | viability, T/C [7] 93.6% | viability, T/C [8] 111% | viability, T/C [9] 94.3% | viability, T/C [10] 80.4% | viability, T/C [11] 61.7% | viability, T/C [12] 39.4% | viability, T/C [13] 100% | viability, T/C [14] 101% | viability, T/C [15] 100% | viability, T/C [16] 94% | viability, T/C [17] 59.4% | viability, T/C [18] 32% | viability, T/C [19] 97.9% | viability, T/C [20] 94.3% | viability, T/C [21] 94.4% | viability, T/C [22] 78.7% | viability, T/C [23] 59.6% | viability, T/C [24] 32.5% | viability, T/C [25] 97.3% | viability, T/C [26] 93.3% | viability, T/C [27] 90.5% | viability, T/C [28] 73.1% | viability, T/C [29] 61.7% | viability, T/C [30] 33.8% | viability, T/C [31] 88.2% | viability, T/C [32] 80.8% | viability, T/C [33] 85.9% | viability, T/C [34] 56.3% | viability, T/C [35] 51.9% | viability, T/C [36] 36.9%
5.24: pIC50 (second compound 0.0316 µM)
5.73: pIC50 (second compound 10 µM)
5.31: pIC50 (second compound 3.16 µM)

COc1ccc([C@@H](O)c2cc(-c3ncnc4cc(N5CCOCC5)ccc34)c(F)cc2Cl)nn1 + COC1C(OC(N)=O)C(O)C(Oc2ccc3c(O)c(NC(=O)c4ccc(O)c(CC=C(C)C)c4)c(=O)oc3c2C)OC1(C)C
5.38: pIC50 (second compound 0.0316 µM)
5.37: pIC50 (second compound 0.316 µM)
inactive: viability, T/C [1] 105% | viability, T/C [2] 95.4% | viability, T/C [3] 81.4% | viability, T/C [4] 76.8% | viability, T/C [5] 61.2% | viability, T/C [6] 27.1% | viability, T/C [7] 92.8% | viability, T/C [8] 89.3% | viability, T/C [9] 96.2% | viability, T/C [10] 84.6% | viability, T/C [11] 65.3% | viability, T/C [12] 36.3% | viability, T/C [13] 107% | viability, T/C [14] 91.3% | viability, T/C [15] 102% | viability, T/C [16] 83.4% | viability, T/C [17] 58.7% | viability, T/C [18] 26.2% | viability, T/C [19] 96% | viability, T/C [20] 96.9% | viability, T/C [21] 97.5% | viability, T/C [22] 83.2% | viability, T/C [23] 65.3% | viability, T/C [24] 28.1% | viability, T/C [25] 108% | viability, T/C [26] 95.8% | viability, T/C [27] 97.8% | viability, T/C [28] 84.3% | viability, T/C [29] 72.1% | viability, T/C [30] 31.4% | viability, T/C [31] 108% | viability, T/C [32] 84.5% | viability, T/C [33] 113% | viability, T/C [34] 63.4% | viability, T/C [35] 75.7% | viability, T/C [36] 30%
5.30: pIC50 (second compound 1 µM)
5.27: pIC50 (second compound 10 µM)
5.24: pIC50 (second compound 0.1 µM) | pIC50 (second compound 3.16 µM)

— PubChem BioAssay AID1963851 (Molecular Pharmacology Branch, DTP, NCI, 2024)
